These results are taken from ChEMBL document CHEMBL3044874, “Synthesis and characterization of some heterocyclic schiff bases: potential anticonvulsant agents” (Med Chem Res, 2011).

The test system of series [1] is Mus musculus. Nature of the series: Neurotoxicity against ip dosed Mus musculus Swiss albino (mouse) at 0.5 hr by rota rod test. Particulars: in vivo. The series is classed as toxicity, organism-based. A general note: The rotarod test checks motor coordination on a turning rod.
Series [2] deals with Mus musculus. Description: Anticonvulsant activity in ip dosed Mus musculus Swiss albino (mouse) assessed as protection against maximal electroshock-induced seizure at 4 hr. The series is classed as functional. Conditions: read-out: MED. For orientation: Protection in the maximal electroshock model is a classic sign of anticonvulsant action.
Series [3] deals with Rattus norvegicus. Description: Anticonvulsant activity in Rattus norvegicus Wistar (rat) assessed as protection against maximal electroshock-induced seizure at 30 mg/kg, po measured at 4 hr. The series is classed as functional, organism-based. Set-up: dose 30 mg/kg.
For series [4], the system named is Mus musculus. Nature of the series: Anticonvulsant activity in ip dosed Mus musculus Swiss albino (mouse) assessed as protection against maximal electroshock-induced seizure at 0.5 hr. Conditions: read-out: MED. The series is classed as functional.
Series [5] relates to Mus musculus. Nature of the series: Anticonvulsant activity in ip dosed Mus musculus Swiss albino (mouse) assessed as protection against pentylenetetrazole-induced seizure at 0.5 hr. The series is classed as functional. Conditions: read-out: MED.
A short description of series [6]: Protection index, ratio TD50 for neurotoxicity to ED50 for protection against maximal electroshock-induced seizure in Mus musculus Swiss albino (mouse). The series is classed as toxicity, organism-based. Particulars: in vivo, read-out: Ratio TD50/ED50.
Series [7] relates to Mus musculus. Description: Anticonvulsant activity in Mus musculus Swiss albino (mouse) assessed as protection against pentylenetetrazole-induced seizure at 300 mg/kg, ip measured at 4 hr. The series is classed as functional, organism-based. Set-up: dose 300 mg/kg.
Series [8] concerns Rattus norvegicus. Nature of the series: Anticonvulsant activity in Rattus norvegicus Wistar (rat) assessed as protection against maximal electroshock-induced seizure at 30 mg/kg, po measured at 1 hr. The series is classed as functional, organism-based. Set-up: dose 30 mg/kg.
Series [9] is described as follows: Neurotoxicity against ip dosed Mus musculus Swiss albino (mouse) by rota rod test. The series is classed as toxicity, organism-based. Particulars: in vivo.
Series [10] has as its system Mus musculus. Nature of the series: Anticonvulsant activity in Mus musculus Swiss albino (mouse) assessed as protection against strychnine-induced seizure at 300 mg/kg, ip measured at 4 hr. The series is classed as functional, organism-based. Set-up: dose 300 mg/kg.
The test system of series [11] is Mus musculus. Description: Neurotoxicity against ip dosed Mus musculus Swiss albino (mouse) at 4 hr by rota rod test. The series is classed as toxicity, organism-based. Particulars: in vivo.
Series [12] deals with Mus musculus. Nature of the series: Anticonvulsant activity in ip dosed Mus musculus Swiss albino (mouse) assessed as protection against maximal electroshock-induced seizure. The series is classed as functional.
Series [13] deals with Mus musculus. Nature of the series: Anticonvulsant activity in Mus musculus Swiss albino (mouse) assessed as protection against pentylenetetrazole-induced seizure at 300 mg/kg, ip. The series is classed as functional, organism-based. Set-up: dose 300 mg/kg.
Series [14] concerns Mus musculus. Description: Anticonvulsant activity in ip dosed Mus musculus Swiss albino (mouse) assessed as protection against strychnine-induced seizure. The series is classed as functional.
For series [15], the system named is Mus musculus. Nature of the series: Anticonvulsant activity in ip dosed Mus musculus Swiss albino (mouse) assessed as protection against strychnine-induced seizure at 0.5 hr. Particulars: read-out: MED. The series is classed as functional.
In series [16] the test system is Rattus norvegicus. Nature of the series: Anticonvulsant activity in Rattus norvegicus Wistar (rat) assessed as protection against maximal electroshock-induced seizure at 30 mg/kg, po measured at 0.5 hr. The series is classed as functional, organism-based. Set-up: dose 30 mg/kg.
For series [17], the system named is Rattus norvegicus. Nature of the series: Anticonvulsant activity in Rattus norvegicus Wistar (rat) assessed as protection against maximal electroshock-induced seizure at 30 mg/kg, po measured at 2 hr. The series is classed as functional, organism-based. Set-up: dose 30 mg/kg.
For series [18], the system named is Rattus norvegicus. Nature of the series: Anticonvulsant activity in Rattus norvegicus Wistar (rat) assessed as protection against maximal electroshock-induced seizure at 30 mg/kg, po measured at 0.25 hr. The series is classed as functional, organism-based. Set-up: dose 30 mg/kg.
The test system of series [19] is Mus musculus. Description: Anticonvulsant activity in Mus musculus Swiss albino (mouse) assessed as protection against strychnine-induced seizure at 300 mg/kg, ip. The series is classed as functional, organism-based. Set-up: dose 300 mg/kg.
Series [20] deals with Mus musculus. Description: Anticonvulsant activity in Mus musculus Swiss albino (mouse) assessed as protection against pentylenetetrazole-induced seizure at 300 mg/kg, ip measured at 0.5 hr. The series is classed as functional, organism-based. Set-up: dose 300 mg/kg.
Series [21] concerns Mus musculus. Description: Neurotoxicity against Mus musculus Swiss albino (mouse) at 300 mg/kg, ip measured at 4 hr by rota rod test. The series is classed as toxicity, organism-based. Particulars: in vivo. Set-up: dose 300 mg/kg, route intraperitoneal.
The test system of series [22] is Mus musculus. Description: Anticonvulsant activity in ip dosed Mus musculus Swiss albino (mouse) assessed as protection against strychnine-induced seizure at 4 hr. The series is classed as functional. Conditions: read-out: MED.
The test system of series [23] is Mus musculus. Description: Anticonvulsant activity in Mus musculus Swiss albino (mouse) assessed as protection against strychnine-induced seizure at 300 mg/kg, ip measured at 0.5 hr. The series is classed as functional, organism-based. Set-up: dose 300 mg/kg.
For series [24], the system named is Mus musculus. Description: Anticonvulsant activity in ip dosed Mus musculus Swiss albino (mouse) assessed as protection against pentylenetetrazole-induced seizure. The series is classed as functional.

The source made the active and inactive calls. No cut-off for these calls is given here.

As usually defined, the TD50 is the dose at which the toxic effect under study appears in half of the subjects. Lower therefore signals greater toxicity. One may read the ED50 as the dose at which the effect has come halfway, by size or by number of responders. In the case of `OC(/C(=N\Cc1cccnc1)c1ccccc1)c1ccccc1` (centres undefined), the MTC in [1] and in series [11] was 30 mg/kg each time. Also, the minimal effective dose in [2] came to 30 mg/kg; in series [4], 30 mg/kg; in [5], 300 mg/kg; in [15], 100 mg/kg. Moreover, the result in [3], in [7], in series [10] and in [13] was inactive. In series [6], the selectivity ratio is 0.57. In addition, the outcome in series [8], in series [16], in series [17] and in series [18] was Active. Further, the TD50 in series [9] worked out at 11.9 mg/kg. Also, the ED50 turned out to be 20.8 mg/kg in series [12] and 106 mg/kg in series [14].

Compound `Clc1ccc(/C=N/Cc2cccnc2)cc1` showed an MTC in series [1] of 100 mg/kg. For the same compound, the minimal effective dose came to 100 mg/kg in series [2], 100 mg/kg in [4], 100 mg/kg in [15] and 300 mg/kg in series [22]. The outcome in [19], in [7], in [8], in series [20], in series [13] and in series [16] was inactive. For the same compound, the outcome in series [17] and in series [18] was inactive. Further, in [3], the outcome was Active. Further, the selectivity ratio in series [6] stood at 2.35. This compound also yielded a TD50 in [9] of 125 mg/kg. Further, the median effective dose (ED50) in series [12] is 53 mg/kg. The Activity entry in series [21] is recorded as “Non-toxic”.

Consider `C(=N\Cc1cccnc1)/c1ccccc1`, for which the MTC in series [1] and in series [11] was 100 mg/kg throughout. Further, the minimal effective dose is 30 mg/kg in series [2], 100 mg/kg in [4], 100 mg/kg in series [15] and 100 mg/kg in [22]. Besides, the result in series [3], in [8] and in [17] was Active. The selectivity ratio in [6] is 2.1. Besides, the outcome in series [7], in series [20], in series [13], in series [16] and in series [18] was inactive. In addition, in series [9], the TD50 amounted to 112 mg/kg. Further, the median effective dose (ED50) in [12] was 53 mg/kg; in series [14], 62.4 mg/kg.

For the compound `O=C1NC(=O)C(c2ccccc2)(c2ccccc2)N1`, the result in [19], in [13] and in series [18] was inactive. Further, the result in series [3], in [8], in [16] and in [17] was Active.

Regarding `C(=C\c1ccccc1)/C=N/Cc1cccnc1`, the MTC in series [1] and in [11] was 100 mg/kg throughout. The minimal effective dose stood at 300 mg/kg in [2] and 30 mg/kg in series [4]. The outcome in [19], in series [3], in [23], in series [7], in [8] and in series [10] was inactive. Also, the result in [20], in series [13], in series [16] and in series [17] was inactive. Also, in series [6], the selectivity ratio is 2.34. The compound further gave a TD50 in [9] of 84.8 mg/kg. Further, the 50% effective dose (ED50) in series [12] was 36.3 mg/kg. The outcome in [18] was Active.

For the compound `COc1ccc(/C=N/Cc2cccnc2)cc1O`, the MTC in series [1] stood at 300 mg/kg; in [11], 100 mg/kg. For the same compound, the minimal effective dose in series [2] amounted to 30 mg/kg; in [4], 30 mg/kg; in series [15], 100 mg/kg; in [22], 300 mg/kg. Also, the outcome in series [19], in series [7], in [20] and in series [13] was inactive. For the same compound, the result in [3], in series [8], in series [16], in series [17] and in series [18] was Active. In series [6], the selectivity ratio turned out to be 31. The compound also displayed a TD50 in series [9] of 198 mg/kg. In addition, the 50% effective dose (ED50) in series [12] was found to be 6.39 mg/kg.

In the case of `CCC1(c2ccccc2)C(=O)NC(=O)NC1=O` [PHENOBARBITAL], in series [19], the outcome was inactive. In addition, the 50% effective dose (ED50) came out at 21.8 mg/kg in [12] and 13.2 mg/kg in [24].

Turning to `Clc1ccccc1/C=N/Cc1cccnc1`, the MTC in series [1] worked out at 300 mg/kg. In addition, the minimal effective dose came to 30 mg/kg in series [2], 30 mg/kg in [4], 100 mg/kg in [15] and 100 mg/kg in [22]. The outcome in [3], in [8], in [16], in series [17] and in series [18] was Active. In addition, in series [6], the selectivity ratio was found to be 17.3. Moreover, the result in series [7], in [20] and in series [13] was inactive. The compound further had a TD50 in series [9] of 202 mg/kg. The values for the ED50 in series [12] and in [14] were 11.7 mg/kg and 93.6 mg/kg, respectively. The Activity entry in [21] is “Non-toxic”.

For `COc1ccccc1/C=N/Cc1cccnc1`, the MTC in series [1] and in series [11] was 300 mg/kg in each case. The minimal effective dose in [2] and in series [4] was 30 mg/kg in each case. The outcome in series [19], in [23], in series [7], in series [10], in series [20] and in [13] was inactive. Also, the result in [3], in series [8], in [16], in series [17] and in series [18] was Active. The selectivity ratio in series [6] was 15. The TD50 in series [9] came to 176 mg/kg. Besides, the median effective dose (ED50) in [12] is 11.7 mg/kg.

`C/C(=N\Cc1cccnc1)c1cccc(N)c1`: the MTC in [1] and in [11] was 100 mg/kg each time. Further, the minimal effective dose in series [2] turned out to be 30 mg/kg; in [4], 30 mg/kg; in [15], 30 mg/kg; in series [22], 100 mg/kg. Moreover, the outcome in series [19], in [7], in series [20] and in series [13] was inactive. Besides, the result in [3], in series [8], in series [16], in [17] and in [18] was Active. For the same compound, the selectivity ratio in series [6] was found to be 6.97. The same compound came in with a TD50 in series [9] of 60.2 mg/kg. In addition, the median effective dose (ED50) in series [12] was found to be 8.64 mg/kg.
